According to PubChem BioAssay AID1963833 (Molecular Pharmacology Branch, DTP, NCI, 2024):

Tested on: 883617-216-R-J1-PDC complex spheroid viability
Test: Anticancer human tumor 883617-216-R-J1-PDC patient-derived bladder carcinoma cell line growth inhibition [POLQ]
Details: for IC50: curve of first compound; for viability, T/C: stronger effect = lower value
Outline: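 Patient-derived tumour cells were co-cultured with HUVEC and mesenchymal stem cells as multicellular spheroids at 37 °C. They were treated with POLQ inhibitors (novobiocin, ART-558, RP6685) alone or combined with other agents. Top concentrations were at or near clinical Cmax (otherwise 10 microM; SN-38 at 1 microM), decreasing in half-log steps.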

[1] = second compound 0.0316 µM, first compound 0.0316 µM
[2] = second compound 0.0316 µM, first compound 0.1 µM
[3] = second compound 0.0316 µM, first compound 0.316 µM
[4] = second compound 0.0316 µM, first compound 1 µM
[5] = second compound 0.0316 µM, first compound 3.16 µM
[6] = second compound 0.0316 µM, first compound 10 µM
[7] = second compound 0.1 µM, first compound 0.0316 µM
[8] = second compound 0.1 µM, first compound 0.1 µM
[9] = second compound 0.1 µM, first compound 0.316 µM
[10] = second compound 0.1 µM, first compound 1 µM
[11] = second compound 0.1 µM, first compound 3.16 µM
[12] = second compound 0.1 µM, first compound 10 µM
[13] = second compound 0.316 µM, first compound 0.0316 µM
[14] = second compound 0.316 µM, first compound 0.1 µM
[15] = second compound 0.316 µM, first compound 0.316 µM
[16] = second compound 0.316 µM, first compound 1 µM
[17] = second compound 0.316 µM, first compound 3.16 µM
[18] = second compound 0.316 µM, first compound 10 µM
[19] = second compound 1 µM, first compound 0.0316 µM
[20] = second compound 1 µM, first compound 0.1 µM
[21] = second compound 1 µM, first compound 0.316 µM
[22] = second compound 1 µM, first compound 1 µM
[23] = second compound 1 µM, first compound 3.16 µM
[24] = second compound 1 µM, first compound 10 µM
[25] = second compound 3.16 µM, first compound 0.0316 µM
[26] = second compound 3.16 µM, first compound 0.1 µM
[27] = second compound 3.16 µM, first compound 0.316 µM
[28] = second compound 3.16 µM, first compound 1 µM
[29] = second compound 3.16 µM, first compound 3.16 µM
[30] = second compound 3.16 µM, first compound 10 µM
[31] = second compound 10 µM, first compound 0.0316 µM
[32] = second compound 10 µM, first compound 0.1 µM
[33] = second compound 10 µM, first compound 0.316 µM
[34] = second compound 10 µM, first compound 1 µM
[35] = second compound 10 µM, first compound 3.16 µM
[36] = second compound 10 µM, first compound 10 µM
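Also: spheroids exposed to compounds for seven days before readout.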
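For viability, T/C in this document: 100% = DMSO vehicle control viability.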

Work on `CCc1cc2c(N3CCc4c(cc(Cn5ccnc5)cc4-c4cn(C)nc4C(F)(F)F)C3=O)cc(C)nc2c(OC)n1` + Nc1ccc(C#CCN(C(=O)Cc2ncc(C(F)(F)F)cc2C(F)(F)F)c2ccc(F)cc2)nn1 yielded an IC50 (second compound 0.0316 µM) of over 10 µM, an IC50 (second compound 0.1 µM) of over 10 µM and an IC50 (second compound 0.316 µM) of over 10 µM. It also gave an IC50 (second compound 1 µM) of over 10 µM, an IC50 (second compound 3.16 µM) of over 10 µM and an IC50 (second compound 10 µM) of 9.75 µM. The viability, T/C [1] was 89.2%, the viability, T/C [2] was 92.2% and the viability, T/C [3] was 92.8%. It also gave a viability, T/C [4] of 90.4%, a viability, T/C [5] of 76% and a viability, T/C [6] of 52.3%. The viability, T/C [7] was 85.5%, the viability, T/C [8] was 96.9% and the viability, T/C [9] was 95.5%. The viability, T/C [10] was 90.6%, the viability, T/C [11] was 79.5% and the viability, T/C [12] was 64.5%. It also gave a viability, T/C [13] of 105%, a viability, T/C [14] of 93.1% and a viability, T/C [15] of 98%. For the same molecule, the viability, T/C [16] was 88.4%, the viability, T/C [17] was 73.9% and the viability, T/C [18] was 57.4%. The viability, T/C [19] was 91.5%, the viability, T/C [20] was 93.3% and the viability, T/C [21] was 94%. The viability, T/C [22] was 88.9%, the viability, T/C [23] was 71.6% and the viability, T/C [24] was 61.8%. The viability, T/C [25] was 106%, the viability, T/C [26] was 92.4% and the viability, T/C [27] was 96.4%. For the same molecule, the viability, T/C [28] was 97.5%, the viability, T/C [29] was 78.6% and the viability, T/C [30] was 67.8%. For the same molecule, the viability, T/C [31] was 106%, the viability, T/C [32] was 118% and the viability, T/C [33] was 115%. It also gave a viability, T/C [34] of 101%, a viability, T/C [35] of 90.5% and a viability, T/C [36] of 48.8%.

With `CCc1cc2c(N3CCc4c(cc(Cn5ccnc5)cc4-c4cn(C)nc4C(F)(F)F)C3=O)ccnc2c(OC)n1` + Nc1ccc(C#CCN(C(=O)Cc2ncc(C(F)(F)F)cc2C(F)(F)F)c2ccc(F)cc2)nn1 the IC50 (second compound 0.0316 µM) was 9.57 µM, the IC50 (second compound 0.1 µM) was 9.93 µM and the IC50 (second compound 0.316 µM) was over 10 µM. It also gave an IC50 (second compound 1 µM) of over 10 µM, an IC50 (second compound 3.16 µM) of over 10 µM and an IC50 (second compound 10 µM) of over 10 µM. For the same molecule, the viability, T/C [1] was 109%, the viability, T/C [2] was 97.5% and the viability, T/C [3] was 91.4%. For the same molecule, the viability, T/C [4] was 104%, the viability, T/C [5] was 80.4% and the viability, T/C [6] was 48.8%. It also gave a viability, T/C [7] of 91.1%, a viability, T/C [8] of 109% and a viability, T/C [9] of 103%. For the same molecule, the viability, T/C [10] was 105%, the viability, T/C [11] was 86% and the viability, T/C [12] was 49.8%. For the same molecule, the viability, T/C [13] was 98.8%, the viability, T/C [14] was 107% and the viability, T/C [15] was 102%. For the same molecule, the viability, T/C [16] was 91.1%, the viability, T/C [17] was 84.8% and the viability, T/C [18] was 59%. The viability, T/C [19] was 95.6%, the viability, T/C [20] was 104% and the viability, T/C [21] was 97.9%. It also gave a viability, T/C [22] of 94.9%, a viability, T/C [23] of 88.9% and a viability, T/C [24] of 61%. The viability, T/C [25] was 109%, the viability, T/C [26] was 97.7% and the viability, T/C [27] was 110%. The viability, T/C [28] was 102%, the viability, T/C [29] was 82.3% and the viability, T/C [30] was 69.6%. For the same molecule, the viability, T/C [31] was 105%, the viability, T/C [32] was 99.6% and the viability, T/C [33] was 107%. For the same molecule, the viability, T/C [34] was 108%, the viability, T/C [35] was 82.9% and the viability, T/C [36] was 57.8%.

`COc1cc2cc(C(=O)CCC(=O)O)sc2cc1OC` + Nc1ccc(C#CCN(C(=O)Cc2ncc(C(F)(F)F)cc2C(F)(F)F)c2ccc(F)cc2)nn1 gave an IC50 (second compound 0.0316 µM) of over 10 µM, an IC50 (second compound 0.1 µM) of over 10 µM and an IC50 (second compound 0.316 µM) of over 10 µM. The IC50 (second compound 1 µM) was over 10 µM, the IC50 (second compound 3.16 µM) was over 10 µM and the IC50 (second compound 10 µM) was over 10 µM. It also gave a viability, T/C [1] of 109%, a viability, T/C [2] of 107% and a viability, T/C [3] of 123%. For the same molecule, the viability, T/C [4] was 93.5%, the viability, T/C [5] was 105% and the viability, T/C [6] was 104%. The viability, T/C [7] was 112%, the viability, T/C [8] was 90.6% and the viability, T/C [9] was 101%. It also gave a viability, T/C [10] of 95.5%, a viability, T/C [11] of 101% and a viability, T/C [12] of 107%. For the same molecule, the viability, T/C [13] was 90.7%, the viability, T/C [14] was 101% and the viability, T/C [15] was 94.9%. It also gave a viability, T/C [16] of 100%, a viability, T/C [17] of 114% and a viability, T/C [18] of 106%. The viability, T/C [19] was 97.1%, the viability, T/C [20] was 125% and the viability, T/C [21] was 108%. For the same molecule, the viability, T/C [22] was 102%, the viability, T/C [23] was 91.5% and the viability, T/C [24] was 95.6%. The viability, T/C [25] was 114%, the viability, T/C [26] was 115% and the viability, T/C [27] was 115%. The viability, T/C [28] was 83.2%, the viability, T/C [29] was 92.5% and the viability, T/C [30] was 120%. It also gave a viability, T/C [31] of 122%, a viability, T/C [32] of 128% and a viability, T/C [33] of 122%. It also gave a viability, T/C [34] of 113%, a viability, T/C [35] of 155% and a viability, T/C [36] of 110%.

`O=C(Nc1ccc(O)c(NS(=O)(=O)c2ccc(F)cc2)c1)c1ccc(-c2ccccc2)cc1` + Nc1ccc(C#CCN(C(=O)Cc2ncc(C(F)(F)F)cc2C(F)(F)F)c2ccc(F)cc2)nn1 showed an IC50 (second compound 0.0316 µM) of over 10 µM, an IC50 (second compound 0.1 µM) of over 10 µM and an IC50 (second compound 0.316 µM) of over 10 µM. The IC50 (second compound 1 µM) was over 10 µM, the IC50 (second compound 3.16 µM) was over 10 µM and the IC50 (second compound 10 µM) was over 10 µM. It also gave a viability, T/C [1] of 91.5%, a viability, T/C [2] of 92.5% and a viability, T/C [3] of 102%. For the same molecule, the viability, T/C [4] was 82.8%, the viability, T/C [5] was 79.3% and the viability, T/C [6] was 71%. It also gave a viability, T/C [7] of 106%, a viability, T/C [8] of 104% and a viability, T/C [9] of 90.1%. It also gave a viability, T/C [10] of 84.1%, a viability, T/C [11] of 88.4% and a viability, T/C [12] of 70.1%. The viability, T/C [13] was 90.4%, the viability, T/C [14] was 102% and the viability, T/C [15] was 97.6%. For the same molecule, the viability, T/C [16] was 85.5%, the viability, T/C [17] was 81.7% and the viability, T/C [18] was 72.5%. The viability, T/C [19] was 91.8%, the viability, T/C [20] was 95.4% and the viability, T/C [21] was 96.3%. The viability, T/C [22] was 84.3%, the viability, T/C [23] was 87.9% and the viability, T/C [24] was 66.1%. It also gave a viability, T/C [25] of 101%, a viability, T/C [26] of 101% and a viability, T/C [27] of 104%. It also gave a viability, T/C [28] of 88.1%, a viability, T/C [29] of 86.5% and a viability, T/C [30] of 72.2%. The viability, T/C [31] was 116%, the viability, T/C [32] was 108% and the viability, T/C [33] was 115%. It also gave a viability, T/C [34] of 97.8%, a viability, T/C [35] of 117% and a viability, T/C [36] of 72.6%.
